Measured values from paper PMC8333062, “Chemical tools for epichaperome-mediated interactome dysfunctions of the central nervous system” (Nature Communications, 2021).

Legend:
[1] = target: T1, 70 key receptor, enzyme, and ion channel proteins (Homo sapiens, UniProt P21917); assay: General side effect profile (SEP) II diversity panel; assay type: binding; settings: 1.0E-5 M
T1 construct: purchased Caliper Life Sciences (now PerkinElmer), NOVASCREEN General SEP II

[2] = target: 70 key receptor, enzyme, and ion channel proteins (Homo sapiens, UniProt P41143); assay: as above; assay type: binding
Chain of 70 key receptor, enzyme, and ion channel proteins (Homo sapiens, UniProt P41143) (P41143 whole entry): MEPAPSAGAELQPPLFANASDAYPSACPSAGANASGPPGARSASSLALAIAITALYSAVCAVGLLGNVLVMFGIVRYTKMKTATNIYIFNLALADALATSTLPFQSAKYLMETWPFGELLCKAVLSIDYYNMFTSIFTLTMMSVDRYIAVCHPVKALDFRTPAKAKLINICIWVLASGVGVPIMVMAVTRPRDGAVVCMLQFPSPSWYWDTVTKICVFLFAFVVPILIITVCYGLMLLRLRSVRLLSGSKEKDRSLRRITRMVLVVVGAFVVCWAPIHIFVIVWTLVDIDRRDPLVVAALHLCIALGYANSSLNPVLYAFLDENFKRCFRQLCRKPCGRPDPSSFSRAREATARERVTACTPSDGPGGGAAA

[3] = target: T2, 70 key receptor, enzyme, and ion channel proteins (Homo sapiens, UniProt P50406); assay: as above; assay type: binding; settings: 1.0E-5 M
T2 construct: purchased Caliper Life Sciences (now PerkinElmer), NOVASCREEN General SEP II
T2 sequence (P50406 whole entry): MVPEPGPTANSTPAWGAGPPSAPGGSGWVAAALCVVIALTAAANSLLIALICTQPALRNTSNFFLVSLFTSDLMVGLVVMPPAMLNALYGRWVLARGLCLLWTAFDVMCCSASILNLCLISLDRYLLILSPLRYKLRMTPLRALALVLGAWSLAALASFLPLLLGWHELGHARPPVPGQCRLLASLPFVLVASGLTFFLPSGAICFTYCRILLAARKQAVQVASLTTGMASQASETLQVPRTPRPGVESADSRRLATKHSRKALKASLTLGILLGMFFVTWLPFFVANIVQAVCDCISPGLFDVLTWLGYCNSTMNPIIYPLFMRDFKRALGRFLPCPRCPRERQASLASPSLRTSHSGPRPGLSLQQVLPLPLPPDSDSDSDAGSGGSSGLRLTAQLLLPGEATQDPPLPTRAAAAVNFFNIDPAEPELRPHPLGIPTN

[4] = target: T3, 70 key receptor, enzyme, and ion channel proteins (Homo sapiens, UniProt O76074); assay: as above; assay type: binding; settings: 1.0E-5 M
T3 construct: purchased Caliper Life Sciences (now PerkinElmer), NOVASCREEN General SEP II

[5] = target: T4, hERG potassium channel (IKr) (Homo sapiens, UniProt Q12809); assay: as above; assay type: binding; settings: human; 1.0E-5 M; read-out: Percent Inhibition: Potassium Channel, I [Kr] (hERG) (h)
T4 construct: purchased Caliper Life Sciences (now PerkinElmer), NOVASCREEN General SEP II
T4 sequence (Q12809 whole entry): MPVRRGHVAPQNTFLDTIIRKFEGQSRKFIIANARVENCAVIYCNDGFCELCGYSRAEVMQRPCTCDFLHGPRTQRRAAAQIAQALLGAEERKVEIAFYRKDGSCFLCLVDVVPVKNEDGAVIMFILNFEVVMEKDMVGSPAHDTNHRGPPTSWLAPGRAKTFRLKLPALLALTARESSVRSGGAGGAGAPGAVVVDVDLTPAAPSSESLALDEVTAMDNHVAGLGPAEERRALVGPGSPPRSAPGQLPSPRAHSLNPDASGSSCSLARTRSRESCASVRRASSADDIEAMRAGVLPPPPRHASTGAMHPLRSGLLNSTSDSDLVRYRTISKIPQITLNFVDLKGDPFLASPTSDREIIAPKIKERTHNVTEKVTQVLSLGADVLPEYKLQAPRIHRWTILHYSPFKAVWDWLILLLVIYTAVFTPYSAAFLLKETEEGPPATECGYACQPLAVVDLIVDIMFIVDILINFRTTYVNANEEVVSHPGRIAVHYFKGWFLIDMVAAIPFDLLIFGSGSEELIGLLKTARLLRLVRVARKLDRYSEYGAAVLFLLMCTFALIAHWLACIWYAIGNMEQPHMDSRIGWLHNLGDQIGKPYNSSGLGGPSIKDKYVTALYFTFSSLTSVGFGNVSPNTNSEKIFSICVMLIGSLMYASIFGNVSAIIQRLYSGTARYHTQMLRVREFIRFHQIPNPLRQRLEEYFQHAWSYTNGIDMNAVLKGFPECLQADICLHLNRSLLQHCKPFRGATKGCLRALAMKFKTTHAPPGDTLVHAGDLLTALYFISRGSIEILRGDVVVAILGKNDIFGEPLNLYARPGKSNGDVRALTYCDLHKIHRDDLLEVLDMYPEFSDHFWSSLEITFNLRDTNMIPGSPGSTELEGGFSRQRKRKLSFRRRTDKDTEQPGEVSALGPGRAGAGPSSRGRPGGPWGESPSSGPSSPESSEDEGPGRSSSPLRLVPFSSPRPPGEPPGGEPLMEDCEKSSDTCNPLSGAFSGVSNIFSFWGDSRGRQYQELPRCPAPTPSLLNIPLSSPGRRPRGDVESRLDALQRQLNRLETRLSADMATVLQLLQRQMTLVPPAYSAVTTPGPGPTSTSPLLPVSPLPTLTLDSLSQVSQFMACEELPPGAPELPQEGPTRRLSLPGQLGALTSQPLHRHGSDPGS

[6] = target: T5, 70 key receptor, enzyme, and ion channel proteins (Homo sapiens, UniProt P17252); assay: as above; assay type: binding; settings: 1.0E-5 M
T5 construct: purchased Caliper Life Sciences (now PerkinElmer), NOVASCREEN General SEP II

[7] = target: T6, 70 key receptor, enzyme, and ion channel proteins (Homo sapiens, UniProt P34969); assay: as above; assay type: binding; settings: 1.0E-5 M
T6 construct: purchased Caliper Life Sciences (now PerkinElmer), NOVASCREEN General SEP II
T6 sequence (P34969 whole entry): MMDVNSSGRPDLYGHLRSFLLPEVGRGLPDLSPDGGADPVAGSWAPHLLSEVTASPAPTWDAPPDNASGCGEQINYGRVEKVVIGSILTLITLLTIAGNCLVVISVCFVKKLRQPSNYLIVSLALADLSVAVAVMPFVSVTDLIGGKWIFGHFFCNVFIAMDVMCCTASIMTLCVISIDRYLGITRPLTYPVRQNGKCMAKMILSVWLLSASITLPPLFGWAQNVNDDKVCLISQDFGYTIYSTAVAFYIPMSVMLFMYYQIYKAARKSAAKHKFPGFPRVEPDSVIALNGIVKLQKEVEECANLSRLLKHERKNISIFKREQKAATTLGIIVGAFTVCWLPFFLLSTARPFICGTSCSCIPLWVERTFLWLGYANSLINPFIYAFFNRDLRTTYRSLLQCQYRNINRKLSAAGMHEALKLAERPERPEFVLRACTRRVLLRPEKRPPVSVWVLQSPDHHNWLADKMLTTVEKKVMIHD

[8] = target: 70 key receptor, enzyme, and ion channel proteins (Homo sapiens, UniProt P35372); assay: as above; assay type: binding
Chain of 70 key receptor, enzyme, and ion channel proteins (Homo sapiens, UniProt P35372) (P35372 whole entry): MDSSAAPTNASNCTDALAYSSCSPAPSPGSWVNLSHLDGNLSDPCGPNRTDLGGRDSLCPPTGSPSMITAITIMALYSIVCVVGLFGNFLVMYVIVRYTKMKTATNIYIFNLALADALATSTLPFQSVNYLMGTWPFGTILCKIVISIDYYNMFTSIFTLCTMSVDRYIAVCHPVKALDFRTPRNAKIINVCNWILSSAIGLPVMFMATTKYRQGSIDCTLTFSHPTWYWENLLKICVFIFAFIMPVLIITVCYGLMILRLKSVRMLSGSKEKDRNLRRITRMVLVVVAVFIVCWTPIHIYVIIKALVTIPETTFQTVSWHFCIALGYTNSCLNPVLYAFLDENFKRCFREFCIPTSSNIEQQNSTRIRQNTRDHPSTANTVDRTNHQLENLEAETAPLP

[9] = target: T7, 70 key receptor, enzyme, and ion channel proteins (Homo sapiens, UniProt P08172); assay: as above; assay type: binding; settings: 1.0E-5 M
T7 construct: purchased Caliper Life Sciences (now PerkinElmer), NOVASCREEN General SEP II

[10] = target: T8, 70 key receptor, enzyme, and ion channel proteins (Homo sapiens, UniProt P47898); assay: as above; assay type: binding; settings: 1.0E-5 M
T8 construct: purchased Caliper Life Sciences (now PerkinElmer), NOVASCREEN General SEP II
T8 sequence (P47898 whole entry): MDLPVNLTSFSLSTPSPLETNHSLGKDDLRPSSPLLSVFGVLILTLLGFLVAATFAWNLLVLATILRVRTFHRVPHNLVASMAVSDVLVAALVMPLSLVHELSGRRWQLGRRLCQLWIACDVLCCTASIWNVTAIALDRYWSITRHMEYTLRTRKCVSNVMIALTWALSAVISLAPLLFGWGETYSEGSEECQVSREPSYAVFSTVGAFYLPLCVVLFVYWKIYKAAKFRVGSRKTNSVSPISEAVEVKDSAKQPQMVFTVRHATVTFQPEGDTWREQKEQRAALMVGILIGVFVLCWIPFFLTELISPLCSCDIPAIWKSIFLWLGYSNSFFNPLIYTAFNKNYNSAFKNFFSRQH

[11] = target: T9, 70 key receptor, enzyme, and ion channel proteins (Homo sapiens, UniProt P25101); assay: as above; assay type: binding; settings: 1.0E-5 M
T9 construct: purchased Caliper Life Sciences (now PerkinElmer), NOVASCREEN General SEP II
T9 sequence (P25101 21-427): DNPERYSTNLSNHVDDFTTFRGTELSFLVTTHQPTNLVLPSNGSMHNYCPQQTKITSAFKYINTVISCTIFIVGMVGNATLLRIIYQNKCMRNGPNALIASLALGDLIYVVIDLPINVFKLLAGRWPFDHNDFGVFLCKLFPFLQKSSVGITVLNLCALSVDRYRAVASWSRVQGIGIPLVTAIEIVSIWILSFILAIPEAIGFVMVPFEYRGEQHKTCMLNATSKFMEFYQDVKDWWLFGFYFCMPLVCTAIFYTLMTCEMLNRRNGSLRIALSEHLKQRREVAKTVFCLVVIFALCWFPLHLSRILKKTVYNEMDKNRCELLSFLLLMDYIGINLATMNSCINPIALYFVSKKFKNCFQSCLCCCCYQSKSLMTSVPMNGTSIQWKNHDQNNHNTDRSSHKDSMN

[12] = target: T10, 70 key receptor, enzyme, and ion channel proteins (Homo sapiens, UniProt P49146); assay: as above; assay type: binding; settings: 1.0E-5 M
T10 construct: purchased Caliper Life Sciences (now PerkinElmer), NOVASCREEN General SEP II
T10 sequence (P49146 whole entry): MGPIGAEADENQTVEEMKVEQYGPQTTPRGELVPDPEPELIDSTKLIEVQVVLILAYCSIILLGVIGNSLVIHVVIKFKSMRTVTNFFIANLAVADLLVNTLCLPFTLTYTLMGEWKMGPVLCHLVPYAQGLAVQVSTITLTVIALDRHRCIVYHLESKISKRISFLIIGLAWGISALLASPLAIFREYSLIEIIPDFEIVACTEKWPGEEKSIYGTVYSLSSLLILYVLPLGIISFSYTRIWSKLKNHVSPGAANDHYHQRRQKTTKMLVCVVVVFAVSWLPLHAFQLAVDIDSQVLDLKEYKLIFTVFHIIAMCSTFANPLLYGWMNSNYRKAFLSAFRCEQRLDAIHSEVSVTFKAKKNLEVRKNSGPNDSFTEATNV

[13] = Acute toxicity, single IV infusion; assay type: in vivo, B6D2F1 mice; settings: 2 mg/kg IV once, 14 days
From the text: Samus Therapeutics, Inc. Confidential 07-November-2017 […]
other pathologic tissues, such as brain regions afflicted by neurodegeneration).This unique behavior of PU-AD provides the rationale for its favorable therapeutic index. It also provides the rationale for the use of a 124I-labeled PU-AD as a PET imaging agent to 1. detect tissues associated with stress HSP90 and 2. inform on the biodistribution and PK of PU -AD.
To assess acute toxicity of a single intravenous (IV) infusion of PU-AD, B6D2F1 mice (15 males and 15 females/group) were dosed IV once with either vehicle control or PU-AD at a dose of 2 mg/kg, which corresponds to 200x the maximum intended human dose for the PU-AD PET study. […]
normal behavior throughout. […] No abnormal findings were detected during gross necropsy, while complete histopathology evaluation is still pending. […]
To asses if chronic administration of PU -AD presented any toxicities, a preliminary study in 13 (6 male & 7 female) B6C3F1 mice was conducted. […] Thyroid was evaluated because PU-AD contains an […]
124I-PU-AD radiation dosimetry is a key part of this pilot trial, and 124I-PU-AD radiation dosimetry analyses shall be ongoing during the trial. In brief, region -of-interest (ROI) image analysis of 124I-PU-AD PET data allows organ dosimetry, calculated using the MIRD formalism as […]

In the case of `CC(C)(C)CNCCn1c(Sc2cc3c(cc2I)OCO3)nc2c(N)ncnc21` [Compound 85], the “Percent Inhibition: Dopamine, D4. 4 (h)” value [1] was 10.85%, the “Percent Inhibition: Opioid, Delta 2 (h)” value [2] was 20.37% and the “Percent Inhibition: Serotonin, 5HT6 (h)” value [3] was 17.73%. The “Percent Inhibition: Phosphodiesterase, PDE5Al (h)” value [4] was -35.00%, the inhibition at 10 µM [5] was -18% and the “Percent Inhibition: Kinase, Protein, PKCa (h)” value [6] was 11.20%. For the same compound, the “Percent Inhibition: Serotonin, 5HT7 (h)” value [7] was 14.36%, the “Percent Inhibition: Opioid, Mu (h)” value [8] was 56.70% and the “Percent Inhibition: Muscarinic, M2 (h)” value [9] was 45.44%. The “Percent Inhibition: Serotonin, 5HT5A (h)” value [10] was 11.09%, the “Percent Inhibition: Endothelin, ET-A (h)” value [11] was 13.54% and the “Percent Inhibition: Neuropeptide, NPY2 (h)” value [12] was 28.79%. For the same compound, the acute toxicity [13] was “No mortality or morbidity was observed”.
